Experimental data reported in patent publication US20260207564A1, “DOSAGE REGIME OF ORFORGLIPRON FOR TREATING A SUBJECT WITH TYPE 2 DIABETES (T2D), OBESITY, OR OVERWEIGHT WITH AT LEAST ONE WEIGHT RELATED COMORBIDITY” (Eli Lilly and Company, priority 2022, published 2026).

Key:
[1] = Phase 1 studies of clinical pharmacology, PK and PD in healthy volunteers and in participants with T2D; assay type: in vivo, human
Source text: The clinical pharmacology, PK, and PD of Compound 1a were studied in 2 completed Phase 1 studies in healthy volunteers and in participants with T2D).

[2] = Phase 2 study in obesity or overweight with at least one weight related comorbidity, 36 weeks (Example 4A); assay type: in vivo, human
Source text: The primary endpoint was the percentage change in body weight from baseline to week 26, with a secondary 36-week endpoint.
A 36-week Phase 2, multicenter, randomized, double-blind, parallel, placebo-controlled study was designed to examine the efficacy and safety of 4 dose levels of once daily administered Compound 1a, compared with once daily administered placebo in participants with obesity or overweight with at least one weight related comorbidity. A total of 272 patients were randomized 5:5:5:3:3:3:3 to once daily placebo or Compound 1a maintenance doses of 12 mg, 24 mg, 36 mg (36-1, 36-2) or 45 mg (45-1, 45-2) treatment groups. The 36 and 45 mg cohorts were subdivided in a 36 mg-1 and 36 mg-2 as well as 45 mg-1 and 45 mg-2 respectively, as different starting doses, dose escalations and dose escalation steps were investigated in these subgroup cohorts (FIG. 2). The different dose escalations were performed to assess the maintenance dose and titration steps for future trials.
Eligible male or female participants were >18 years of age with a HbA1c<6.5% (48 mmol/mol) and a BMI of ≥30 kg/m2 or ≥27 kg/m2 and <30 kg/m2 with at least 1 of the following weight-related comorbidities: hypertension, dyslipidemia, cardiovascular disease, or obstructive sleep apnea.
The study period included a 2-week screening/lead in period, a 36-week treatment period followed by a 2 week off-drug safety follow-up period. During the treatment period, doses were escalated for all treatment groups. The dose escalation period ranged from 0 to 16 weeks depending on dose group. The initial dose was 2 or 3 mg followed by additional escalation steps depending on assigned cohort (FIG. 2). Compound 1a or matching placebo was administered daily by oral capsule. All participants were provided healthy eating and exercise education by study personnel throughout the trial.
The primary endpoint was percent change in body weight from baseline at week 26. Secondary endpoints included percent change in body weight from baseline at week 36, change from baseline in body weight (kg), BMI (kg/m2) and waist circumference (cm), and percentage of study participants who achieved ≥5% body weight (kg) reduction, and ≥10% body weight (kg) reduction, at week 26 and week 36. Key safety endpoints included adverse events, blood pressure, heart rate, safety laboratory measures, PK parameters, and patient-reported outcomes.
A sample size of 270 participants was calculated to provide at least 90% power for testing superiority of Compound 1 versus placebo in the primary endpoint. The estimand used for efficacy analyses was an “efficacy estimand”, representing the average treatment effect for the randomized population if the treatment was administered as intended, thus including data from all randomized participants who received at least one dose of study drug and excluding data after permanent discontinuation of study drug. All tests of treatment effects were conducted at a 2-sided alpha level of 0.05 without adjustment for multiple comparisons, and 2-sided 95% CIs were calculated. To test efficacy of Compound 1a with adequate statistical power, for 36 mg and 45 mg the evaluation of the primary endpoint was made by pooling 2 dose escalation regimens (combining 36 mg-1 and 36 mg-2, for 36 mg, and combining 45 mg-1 and 45 mg-2, for 45 mg).
Safety analyses were conducted by comparing safety of Compound 1a with placebo irrespective of adherence to study drug. The safety analyses were conducted using the safety analysis set, which includes all randomized participants who received at least one dose of study drug. The results were presented in summary statistics, point estimates, and 95% confidence intervals along with p-values for treatment comparisons.

[3] = assay type: in vivo, human; settings: 26 weeks, 3 mg to 45 mg QD
Description: Two Phase 2 studies have evaluated the safety and efficacy of Compound 1a for the treatment of T2D and another for treatment of obesity or overweight with at least one weight related comorbidity.
The 36 and 45 mg cohorts were subdivided in a 36 mg-1 and 36 mg-2 as well as 45 mg-1 and 45 mg-2 respectively, as different starting doses, dose escalations and dose escalation steps were investigated in these subgroup cohorts (FIG. 4).
Eligible male or female participants were >18 years of age with T2D with a HbA1c 7.0% to 10.5% and a body mass index (BMI) of ≥23 kg/m2, treated with diet and exercise alone or with a stable dose of metformin and with a stable body weight (≤5% body weight gain and/or loss) for at least 3 months prior to screening/Visit 1.
The study period included a 2-week screening/lead in period and a 26-week treatment period. During the treatment period, doses were escalated for all treatment groups. The dose escalation period ranged from 4 to 12 weeks depending on dose group. The initial dose was 2 or 3 mg followed by additional escalation steps depending on assigned cohort (FIG. 4). […] All participants were provided healthy eating and exercise education by study personnel throughout the trial.
Key Safety and tolerability endpoints included the frequency of patient- and investigator-reported adverse events, rate and incidence of hypoglycaemia events (glucose <70 mg/dL [3.9 mmol/L] and ≥54 mg/dL [3.0 mmol/L], or glucose <54 mg/dL [3.0 mmol/L]), and change in safety laboratory parameters, electrocardiogram, and vital signs.
The estimand used for efficacy analyses was an “efficacy estimand”, representing the average treatment effect for the randomized population if the treatment was administered as intended, thus including data from all randomized participants who received at least one dose of study drug and excluding data after permanent discontinuation of study drug. All tests of treatment effects were conducted at a 2-sided alpha level of 0.05 without adjustment for multiple comparisons, and 2-sided 95% CIs were calculated.
Safety analyses were conducted by comparing safety of OFG with placebo and with dulaglutide irrespective of adherence to study drug. The safety analyses were conducted using the safety analysis set, which includes all randomized participants who received at least one dose of study drug. The results were presented in summary statistics, point estimates, and 95% confidence intervals along with p-values for treatment comparisons.

[4] = after 12 weeks of treatment, 9 mg QD to 45 mg QD, people with T2D

## Cc1cc(-n2nc3c(c2-n2ccn(-c4ccc5c(cnn5C)c4F)c2=O)[C@H](C)N(C(=O)c2cc4cc([C@H]5CCOC(C)(C)C5)ccc4n2[C@@]2(c4noc(=O)[nH]4)C[C@@H]2C)CC3)cc(C)c1F [Compound 1a, 3-[(1S,2S)-1-[5-[(4S)-2,2-dimethyloxan-4-yl]-2-[(4S)-2-(4-fluoro-3,5-dimethylphenyl)-3-[3-(4-fluoro-1-methylindazol-5-yl)-2-oxoimidazol-1-yl]-4-methyl-6,7-dihydro-4H-pyrazolo[4,3-c]pyridine-5-carbonyl]indol-1-yl]-2-methylcyclopropyl]-4H-1,2,4-oxadiazol-5-one]
[1]; 9 mg QD to 45 mg QD dose range
  PK of Compound 1a plasma concentration increase with dose: approximately proportional to the increase of dose
[1]; Phase 1 studies
  PK profile: appropriate for once daily oral dosing
  most reported AEs: nausea, vomiting, and constipation
[1]; [4]
  improvements in HbA1c: up to −1.4%
  weight loss: up to −5.8 kg
[2]; 36 weeks, 45 mg
  percentage of patients who had weight reduction of 15% or more: 48%
[2]; 36 weeks, across dose groups
  percentage of patients who had weight reduction of 10% or more: 47% to 75
[2]; across dose groups
  percentage of patients who reported AEs: 86% to 90.2
[2]; baseline to week 26, across dose groups
  mean reduction in systolic blood pressure (SBP): −4.8 to −10.5 mmHg
[2]; baseline to week 36, across dose groups
  mean reduction in systolic blood pressure (SBP): −6.7 to −10.5 mmHg
[2]; dose escalated every 3 weeks compared to every 1-2 weeks
  tolerability by escalation interval: superior tolerability
[2]; in vivo
  Liver function tests compared with placebo: not significantly increased
  Most common TEAEs: GI related (nausea, vomiting, diarrhea and constipation)
  diastolic blood pressure (DBP) compared to placebo: No differences were noted
  health-related quality of life and physical activity readouts versus placebo: greater improvements
  most common adverse events: gastrointestinal, mild to moderate in severity
  most common events reported: Nausea, constipation, vomiting, diarrhea, and eructation
  prespecified weight and cardiometabolic measures: improvements in all prespecified weight and cardiometabolic measures
[2]; primary 26-week endpoint
  mean percent weight loss compared to placebo: 11%
  mean percent weight loss from baseline: up to 13%
[2]; starting dose of 3 mg versus 2 mg starting dose
  GI AE events by starting dose: higher GI AE events
[2]; week 26, across dose groups 12-45 mg
  mean percentage change in body weight from baseline: −8.6% to −12.6
[2]; week 36
  HDL cholesterol versus placebo: no significant change
  changes in the fasting lipids (triglycerides, total cholesterol, non-HDL cholesterol, LDL and VLDL): Benefits with Compound 1a were noted
[2]; week 36, across dose groups 12-45 mg
  mean percentage change in body weight from baseline: −9.4% to −14.7
[3]
  HbA1c treatment difference vs placebo: −1.7%
  mean changes from baseline in HbA1c: up to −2.1%
  mean weight loss: up to 10 kg
  weight loss treatment difference vs placebo: 8 kg
